US8663701B2, “Compositions containing ultra-micronized palmitoyl-ethanolamide” (priority 2009, dated 2014)
Values belong to the compound of their own block, whether it stands above or below them.

Legend:
[1] = Particle size profile, laser particle size analyzer (LALLS); type: physicochemical; conditions: ultra-micronization
Description: In order to measure the particle size, a laser particle size analyzer (Malvern Mastersizer) with LALLS (Low Angle Laser Light Scattering) technique using the Fraunhofer theory of computation is employed.

[2] = system: protein NGF, protein TNF-alpha; assay: Carrageenan-induced granuloma; type: in vivo, rat; conditions: for Expression of protein NGF in the dorsal root ganglia / Expression of protein NGF in the granulomatous tissue / Expression of protein TNF-alpha in the dorsal root ganglia: 96 hours, 10 mg/Kg oral every 12 hours for 3 days
Method: The pharmacological model of granuloma induced, in the rat, by the introduction in the subcutaneous tissue of carrageenan-soaked sponge has been used. The model is described in De Filippis et al., J Cell Mol Med. 2009; 13(6):1086-1095.
The administrations were carried out at time 0 (immediately before the introduction of the sponges), and every 12 hours for 3 consecutive days. The unit doses administered were 10 mg/Kg.
The biochemical parameters relative to pro-algogenic mediators were detected, after sacrifice of the animal occurred after 96 hours from the introduction of the sponges, both in the granulomatous tissue (expression of the protein NGF), and at the level of the dorsal root ganglia (RDG) (expression of the protein TNF-alpha and the protein NGF).

[3] = system: cutaneous reaction induced by Ascaris suum; assay: Cutaneous reaction induced by Asc S1 antigen in dogs sensitized to Ascaris suum; type: in vivo, Beagle dog; conditions: for Inhibition on the cutaneous reaction induced by Ascaris suum: 10 mg/Kg oral; for Inhibition of the cutaneous reaction: between 1 and 4 hours after treatment
Method: Beagle dog spontaneously sensitized to Ascaris suum were used.
A 2% solution of Evans Blue in saline was administered endovenously (0.4 mL/Kg) 30 minutes before the intradermal injection of Asc S1 antigen, so as to be able to visualize the dermal reaction area.
The dermal reaction area was measured 10 minutes after the injection of Asc S1 antigen.

[4] = Modulated Differential Scanning Calorimetry (MDSC); type: physicochemical; conditions: room temperature; from MDSC spectrum
Description: The MDSC technique is a known one, the principles and applications of which are described, for example, in S. R. Rabel et al., Journal of Pharmaceutical and Biomedical Analysis, 21 (1999) 339-345. The tests described in the present patent application have been carried out with an equipment TA DSC Q200.
Such differential calorimetry measurement performed with the MDSC technique have shown an outstanding difference between the initial product and the ultra-micronized product, which difference consists in the appearance, in the product subjected to ultra-micronization, of a positive peak of exothermal transition at a temperature between 101° C. and 103° C., which is distinctive of structures with a high energy content; in the original product, such peak results, on the contrary, to be negative (see FIGS. 3 and 4). The positive exothermal transition peak has to be interpreted as the signal of the heat developed by the transformation of the higher energy content form (formed during the ultra-micronization process) into the native crystalline form with lower energy content.
The net energy transition which characterizes the positive peak at 101-103° C. of FIG. 4 is symptomatic of such stability. Differently, progressive transitions at lower temperatures should have to be noticed.

[5] = system: 2-arachidonoylglycerol (2-AG); assay: Concentration of 2-AG in serum after single oral administration of PEA; type: in vivo, Beagle dogs; conditions: for Concentration in serum, 2AG: 15 mg/Kg oral, fasting; for Increase of 2-AG in blood compared to the basal levels: administration per os
Description: Dose measurements in blood have been carried out of 2-arachidonoyl-glycerol (2-AG), an endocannabinoid of great importance in the modulation of the activation of cells capable of expressing the cannabinoid CB2 receptor; this is the case of many cells belonging to the immune system as the microglia.

[6] = Concentration of PEA in serum after single oral administration; type: in vivo, Beagle dogs; conditions: 15 mg/Kg oral, fasting
[7] = system: TNF-alpha, tissue mast cells; assay: LPS-induced acute intestinal inflammation; type: in vivo, mouse; conditions: 18 hours after LPS
Method: (§1) An acute inflammation was induced in the animal by means of intra-peritoneal injection of LPS (lipopolysaccharide): the animals were sacrificed after 18 hours from the LPS administration. Instead, a chronic inflammation at the colon level was induced by administering the animal with DNBS (2,4-Dinitrobenzene sulfonic acid): in this case, the animals were sacrificed after 96 hours from the DNBS administration.
(§2) The level of TNF-alpha and the percent variation in the number of mast cells were assessed on intestinal tissue.

[8] = system: TNF-alpha, tissue mast cells; assay: DNBS-induced chronic intestinal inflammation; type: in vivo, mouse; conditions: 96 hours after DNBS
Method: as §1, §2

[9] = system: TNF-alpha, NGF, NF-kB, IL-1 alpha; assay: Sciatic nerve ligation (CCI), spinal parameters at day 10; type: in vivo, mouse; conditions: for IL-1alpha / NGF / TNF-alpha: spinal area, day 10 after ligation (CCI), per os once per day
Description: After sciatic nerve ligation—CCI (carried out as described by Costa et al., Pain 2008; 139:541-550), a series of altered spinal parameters have been assessed in the mouse, following peripheral damage, and related to the activation of microglial cells induced by the peripheral chronic distress. In particular, TNF-alpha, NGF, NF-kB according to the method described by Costa et al. (see supra), and IL-1 alpha according to the method described by Fiorentino et al., 2008; 58(10):3100-3109 have been measured.
A 0.5% solution in carboxymethyl cellulose has been used as a vehicle.
The measurements of the parameters indicated, above have been carried out at day 10 from the sciatic nerve ligation, after sacrifice of the test animal and sampling of the spinal area.

[10] = system: neuropathic pain at the lower limbs; assay: Neuropathic pain in Multiple Sclerosis patients, VAS scale; type: in vivo; conditions: for VAS after the treatment of 60 days (average value): tablets
Method: The pain intensity was measured with a VAS (Visual Analogue Scale) scale both before and at the end of the treatment with palmitoylethanolamide.

[11] = system: IL-1 beta, NO2; assay: Beta-amyloid-induced neuroinflammation; type: in vivo, C57BL/6 mice; conditions: for Effect on the levels of the biological parameters considered: IL-1 beta and NO2 in hippocampus; for Hippocampal levels of NO2 / Hippocampal tissue levels of IL-1 beta (with immunofluorescence method) (count of cells immunopositive to THE-1 beta): per os daily for 8 days after beta-amyloid inoculation
Method: C57BL/6 mice with age ranging between 3 and 5 months have been used, divided in 3 different groups (20 animals per group). […] The administrations were carried out daily for 8 days successive to the inoculation of the beta-amyloid. The third group was administered with the vehicle alone. After sacrifice of the animal, IL-1 beta and NO2 dose level was measured in the hippocampal homogenate via an immunofluorescence method.
The experimental method described by Esposito et al., Br J Pharmacol. 2007; 151:1272-1279 has been used.

[12] = listed as ultra-micronized PEA, 10 mg/kg
[13] = Time 0 hours (before administration)
[14] = Time 0 (immediately before administration)
[15] = vehicle 100, listed as Ultra-micronized PEA
[16] = listed as micronized PEA, 10 mg/kg
[17] = vehicle 100, listed as Micronized PEA

Particle size <0.6 microns [1]: 2.0% | Particle size <1 microns [1]: 14.7% | Particle size <2 microns [1]: 59.6% | Particle size <6 microns [1]: 99.9% | Particle size <10 microns [1]: 100% | Particle size >14 microns [1]: Absent | Stability of the high energy crystalline form [4]: substantially stable at room temperature | Concentration in serum, PEA [6, 14]: 12.4 nM | Concentration in serum, PEA ([6]; Time 1 h, 15 mg/kg): 22.4 nM | Concentration in serum, PEA ([6]; Time 2 h, 15 mg/kg): 16.2 nM | Concentration in serum, PEA ([6]; Time 3 h, 15 mg/kg): 14.1 nM
SMILES: CCCCCCCCCCCCCCCC(=O)NCCO [Ultra-micronized palmitoylethanolamide, palmitoylethanolamide]
Expression of protein NGF in the dorsal root ganglia [2]: 43.8 ± 3.1 OD = mm^2 | Expression of protein NGF in the granulomatous tissue [2, 12]: 6.1 ± 1.6 OD = mm^2 | Expression of protein TNF-alpha in the dorsal root ganglia [2, 12]: 96.6 ± 10.4 OD = mm^2 | Decrease of NGF levels ([2]; compared to the micronized PEA): much more marked decrease | Inhibition on the cutaneous reaction induced by Ascaris suum [3, 13]: 0% | Inhibition on the cutaneous reaction induced by Ascaris suum ([3]; Time 1 hours, 10 mg/kg): 20.8 ± 5.4% | Inhibition on the cutaneous reaction induced by Ascaris suum ([3]; Time 2 hours, 10 mg/kg): 32.4 ± 4.7% | Inhibition on the cutaneous reaction induced by Ascaris suum ([3]; Time 4 hours, 10 mg/kg): 26.0 ± 4.9% | Inhibition on the cutaneous reaction induced by Ascaris suum ([3]; Time 8 hours, 10 mg/kg): 15.1 ± 9.6% | Inhibition on the cutaneous reaction induced by Ascaris suum ([3]; Time 24 hours, 10 mg/kg): 4.5 ± 6.7% | Inhibition of the cutaneous reaction ([3]; listed as ultra-micronized PEA): above 20% | Concentration in serum, 2AG [5, 14]: 1.0 pmol/mL | Concentration in serum, 2AG ([5]; Time 1 h, 15 mg/kg): 3.6 pmol/mL | Concentration in serum, 2AG ([5]; Time 2 h, 15 mg/kg): 4.2 pmol/mL | Concentration in serum, 2AG ([5]; Time 3 h, 15 mg/kg): 4.7 pmol/mL | Increase of 2-AG in blood compared to the basal levels [5]: higher than 400% | Expression of protein TNF-alpha ([7]; listed as Ultra-micronized PEA): 75.6 ± 12.3 OD = mm^2 | Number of tissue mast cells, percent of vehicle [7, 15]: 41% | Expression of protein TNF-alpha ([8]; listed as Ultra-micronized PEA): 62.9 ± 11.8 OD = mm^2 | Tissue mast cell number, percent of vehicle [8, 15]: 26% | Effect on all the biochemical parameters under investigation ([9]; CCI, day 10): substantial normalization | IL-1alpha ([9]; listed as ultra-micronized PEA): 2.50 ± 0.02 pg/mg prot | NGF ([9]; listed as ultra-micronized PEA): 10.2 ± 2.0 pg/mg prot | TNF-alpha ([9]; listed as ultra-micronized PEA): 44.1 ± 2.8 pg/mg prot | VAS after the treatment of 60 days (average value) ([10]; 600 mg per day for 60 days): 2.85 | Effect on pain (VAS) ([10]; 600 mg per day for 60 days, Wilcoxon p=0.001): marked decrease of the pain | VAS before the treatment (average value) [10]: 6.52 | Effect on the levels of the biological parameters considered ([11]; listed as ultra-micronized PEA): high decrease | Hippocampal levels of NO2 ([11]; listed as ultra-micronized PEA): 3.1 ± 0.6 μM/μg of proteins from hippocampal homogeneate | Hippocampal tissue levels of IL-1 beta (with immunofluorescence method) (count of cells immunopositive to THE-1 beta) ([11]; listed as ultra-micronized PEA): 21.8 ± 5.4

concentration at 0 h ([6]; Beagle, dog, serum, po, 15 mg/kg, Time 0 (immediately before administration)): 12.4 nM | concentration at 1 h ([6]; Beagle, dog, serum, po, 15 mg/kg, Time 1 h): 22.2 nM | concentration at 2 h ([6]; Beagle, dog, serum, po, 15 mg/kg, Time 2 h): 15.6 nM | concentration at 3 h ([6]; Beagle, dog, serum, po, 15 mg/kg, Time 3 h): 13.4 nM
SMILES: CCCCCCCCCCCCCCCC(=O)NCCO [Micronized palmitoylethanolamide, palmitoylethanolamide, reference compound]
Expression of protein NGF in the dorsal root ganglia [2, 16]: 50.8 ± 3.0 OD = mm^2 | Expression of protein NGF in the granulomatous tissue [2, 16]: 14.6 ± 2.1 OD = mm^2 | Expression of protein TNF-alpha in the dorsal root ganglia [2, 16]: 151.1 ± 9.6 OD = mm^2 | Inhibition on the cutaneous reaction induced by Ascaris suum [3, 13]: 0% | Inhibition on the cutaneous reaction induced by Ascaris suum ([3]; Time 1 hours, 10 mg/kg): 9.4 ± 2.6% | Inhibition on the cutaneous reaction induced by Ascaris suum ([3]; Time 2 hours, 10 mg/kg): 9.3 ± 4.7% | Inhibition on the cutaneous reaction induced by Ascaris suum ([3]; Time 4 hours, 10 mg/kg): −2.6 ± 4.2% | Inhibition on the cutaneous reaction induced by Ascaris suum ([3]; Time 8 hours, 10 mg/kg): −0.8 ± 2.0% | Inhibition on the cutaneous reaction induced by Ascaris suum ([3]; Time 24 hours, 10 mg/kg): −0.2 ± 2.0% | Inhibition of the cutaneous reaction ([3]; listed as micronized PEA): almost null | Concentration in serum, 2AG [5, 14]: 1.0 pmol/mL | Concentration in serum, 2AG ([5]; Time 1 h, 15 mg/kg): 1.2 pmol/mL | Concentration in serum, 2AG ([5]; Time 2 h, 15 mg/kg): 1.6 pmol/mL | Concentration in serum, 2AG ([5]; Time 3 h, 15 mg/kg): 1.7 pmol/mL | Increase of 2-AG in blood compared to the basal levels [5]: about 70% | Expression of protein TNF-alpha ([7]; listed as Micronized PEA): 128.3 ± 10.8 OD = mm^2 | Number of tissue mast cells, percent of vehicle [7, 17]: 86% | Expression of protein TNF-alpha ([8]; listed as Micronized PEA): 134.8 ± 8.4 OD = mm^2 | Tissue mast cell number, percent of vehicle [8, 17]: 74% | IL-1alpha ([9]; listed as micronized PEA): 25.80 ± 2.0 pg/mg prot | NGF ([9]; listed as micronized PEA): 38.6 ± 3.0 pg/mg prot | TNF-alpha ([9]; listed as micronized PEA): 60.4 ± 3.0 pg/mg prot | VAS after the treatment of 60 days (average value) ([10]; 600 mg per day for 60 days): 4.22 | VAS before the treatment (average value) [10]: 6.52 | Effect on the levels of the biological parameters considered ([11]; listed as micronized PEA): only a marginal activity | Hippocampal levels of NO2 ([11]; listed as micronized PEA): 8.2 ± 2.1 μM/μg of proteins from hippocampal homogeneate | Hippocampal tissue levels of IL-1 beta (with immunofluorescence method) (count of cells immunopositive to THE-1 beta) ([11]; listed as micronized PEA): 86.3 ± 7.9
